From US20130261077A1 (priority 2012, published 2013)

The molecules below were run against T1, FimH-CRD (Escherichia coli, UniProt P08191) (assay: Competitive binding assay by fluorescence polarization, assay 2 (compounds prepared by robotics, plates frozen and thawed)).
T1 construct: The first 177 amino acids of the FimH protein; thrombin tag (printed as 'fusion protein with thrombin') (cleaved yes); made in house; host or cells: bacteria (pET21b plasmid)
Procedure: The first 177 amino acids of the FimH protein were expressed as a fusion protein with thrombin in a pET21b plasmid in bacteria. This FimH protein sequence contains the carbohydrate recognition domain (CRD) and shall be termed FimH-CRD. Following bacterial expression of the protein, the FimH-CRD protein was purified to homogeneity and the thrombin tag removed by protease cleavage. A competitive binding assay by fluorescence polarization was performed using 5 nM of the Alexa 647 mannoside probe and 60 nM of the FimH-CRD. The samples are assayed in a low volume 384 well microtiter plate in a final volume of 20 μl. The final assay buffer conditions are the following, 50 mM Tris-Cl, ph 7.0, 100 mM NaCl, 1 mM EDTA, 5 mM β-mercaptoethanol, 0.05% BSA and 2.5% DMSO. Two assays are performed for FimH, termed assay 1 or assay 2. The assay conditions are the same for both assays except the following: assay 1 has compounds prepared by manual dilution in a serial dilution factor with 12-point dose response while assay 2 has compounds prepared by a robotics system also through a serial dilution factor (12 point dose response) and initially prepared in duplicate in 384 well-Corning polypropylene round bottom plates. The assay 2 plates have compound which is then frozen and must be thawed prior to use. Initially the Alexa 647 probe and the FimH-CRD are added to the assay buffer and then 0.5 μl of test compound (assay 1 or 2) between 0.4 nM to 75 μM final concentration are added (12 point titration with 3-fold serial dilution). Control wells for the Alexa 647 probe are prepared with the same conditions except for the addition of the FimH-CRD protein. Plates are then incubated for 5 hrs at room temperature in the dark and under humid conditions to prevent drying. Plates are read using the SpectraMax Paradigm multi-mode plate reader and the appropriate fluorescent polarization detection cartridge (Alexa-647).
Alexa 647 mannoside probe is prepared using the similar procedure reported for FAM mannoside (Han, Z. et. al., 2010, J. Med. Chem., 53, 4779) and is described in the scheme below.
To a blue colored stirred solution of (2S,3S,4S,5S,6R)-2-(4-aminobutoxy)-6-(hydroxymethyl)tetrahydropyran-3,4,5-triol (2.21 mg, 0.009 mmol) and the (2E)-2-[(2E,4E)-5-[3,3-dimethyl-5-sulfonato-1-(3-sulfonatopropyl)indol-1-ium-2-yl]penta-2,4-dienylidene]-3-[6-(2,5-dioxopyrrolidin-1-yl)oxy-6-oxo-hexyl]-3-methyl-1-(3-sulfonatopropyl)indoline-5-sulfonate (Potassium Ion (3)) (4.9 mg, 0.0044 mmol) in DMF (44 μL) is added Et3N (5.4 mg, 7.0 μL, 0.053 mmol) at RT. The solution is stirred at room temperature over night, concentrated, dissolved in water and purified on 12 g C-18 silica gel cartridge on Isolera system using acetonitrile in water (0 to 40%, 10 CV) and followed by lyophilization to afford Alexa 647 mannoside probe (3.3 mg, 34%) as deep blue solid.
The Kd values of the compounds are determined from dose response curves using twelve concentrations per compound in duplicate. Curves are fitted to data points using Fluorescence Polarization competitive displacement analysis, and Kds are interpolated from the resulting curves using GraphPad Prism software, version […] (GraphPad software Inc., San Diego, Calif., USA).

T1 sequence (P08191 22-177): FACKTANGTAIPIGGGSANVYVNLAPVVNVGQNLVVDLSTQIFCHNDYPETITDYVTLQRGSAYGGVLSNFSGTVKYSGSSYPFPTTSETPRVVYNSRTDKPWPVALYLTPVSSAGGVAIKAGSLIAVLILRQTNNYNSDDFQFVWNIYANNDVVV

Compared with `CNC(=O)c1cccc(-c2ccc(-c3cccc([C@H]4O[C@H](CO)[C@@H](O)[C@H](O)[C@@H]4O)c3)c(C)c2)c1` [Compound 159, N,3′-dimethyl-3″-((2R,3S,4R,5S,6R)-3,4,5-trihydroxy-6-(hydroxymethyl)tetrahydro-2H-pyran-2-yl)-[1,1′:4′,1″-terphenyl]-3-carboxamide], `CNC(=O)c1cccc(Cc2cccc([C@H]3O[C@H](CO)[C@@H](O)[C@H](O)[C@@H]3O)c2)c1` [Compound 157, N-methyl-3-[[3-[(2R,3S,4R,5S,6R)-3,4,5-trihydroxy-6-(hydroxymethyl)tetrahydropyran-2-yl]phenyl]methyl]benzamide] is 2.2-fold higher in Kd: 0.0156 ± 0.0034 µM for the first, 0.0343 ± 0.0081 µM for the second.

Going from `OC[C@H]1O[C@H](c2cccc(COc3ccccc3)c2)[C@@H](O)[C@@H](O)[C@@H]1O` [Compound 262, (2R,3S,4R,5S,6R)-2-(hydroxymethyl)-6-[3-(phenoxymethyl)phenyl]tetrahydropyran-3,4,5-triol] to `OC[C@H]1OC(c2cccc(OCc3ccccc3)c2)[C@@H](O)[C@@H](O)[C@@H]1O` (some centres unmarked) [Compound 222], the Kd rises from 0.0266 ± 0.0114 µM to 0.0407 ± 0.0012 µM (1.5-fold).

`CC[C@H](C)COc1ccc(C2O[C@H](CO)[C@@H](O)[C@H](O)[C@@H]2O)cc1` (some centres unmarked) [Compound 231] and `OC[C@H]1OC(c2ccc(OCCCCF)cc2)[C@@H](O)[C@@H](O)[C@@H]1O` (some centres unmarked) [Compound 234] are within error of each other in Kd: 0.0089 ± 0.0014 µM for the first, 0.0114 ± 0.0045 µM for the second.

`CNC(=O)c1ccc2[nH]c(-c3cccc([C@H]4O[C@H](CO)[C@@H](O)[C@H](O)[C@@H]4O)c3)nc2c1` [Compound 172, N-methyl-2-(3-((2R,3S,4R,5S,6R)-3,4,5-trihydroxy-6-(hydroxymethyl)tetrahydro-2H-pyran-2-yl)phenyl)-1H-benzo[d]imidazole-5-carboxamide] and `Cc1ccc2[nH]c(-c3cccc([C@H]4O[C@H](CO)[C@@H](O)[C@H](O)[C@@H]4O)c3)nc2c1` [Compound 164] are within error of each other in Kd: 0.53 ± 0.714 µM for the first, 0.0502 ± 0.0141 µM for the second.

`Cn1nccc1-c1ccc(-c2cccc([C@H]3O[C@H](CO)[C@@H](O)[C@H](O)[C@@H]3O)c2)cc1` [Compound 124, (2R,3S,4R,5S,6R)-2-(hydroxymethyl)-6-[3-[4-(2-methylpyrazol-3-yl)phenyl]phenyl]tetrahydropyran-3,4,5-triol] and `OC[C@H]1O[C@H](c2cccc(-c3ccc(-c4nnco4)cc3)c2)[C@@H](O)[C@@H](O)[C@@H]1O` [Compound 178] are within error of each other in Kd: 0.0162 ± 0.002 µM for the first, 0.0179 ± 0.0037 µM for the second.

`Cc1nnc(-c2ccc(-c3cccc([C@H]4O[C@H](CO)[C@@H](O)[C@H](O)[C@@H]4O)c3)cc2)s1` [Compound 176] and `OCc1nc2cc(-c3cccc([C@H]4O[C@H](CO)[C@@H](O)[C@H](O)[C@@H]4O)c3)ccc2[nH]1` [Compound 146, (2R,3S,4R,5S,6R)-2-(Hydroxymethyl)-6-[3-[2-(hydroxymethyl)-1H-benzimidazol-5-yl]phenyl]tetrahydropyran-3,4,5-triol] are within error of each other in Kd: 0.0211 ± 0.0026 µM for the first, 0.0278 ± 0.0108 µM for the second.

`OC[C@H]1O[C@H](c2cccc(C/C=C/c3cc(Cl)cc(Cl)c3)c2)[C@@H](O)[C@@H](O)[C@@H]1O` [Compound 95, (2R,3S,4R,5S,6R)-2-[3-[(E)-3-(3,5-Dichlorophenyl)allyl]phenyl]-6-(hydroxymethyl)tetrahydropyran-3,4,5-triol] and `CNC(=O)c1cc(/C=C\c2cccc([C@H]3O[C@H](CO)[C@@H](O)[C@H](O)[C@@H]3O)c2)cc(C(=O)NC)c1` [Compound 135] are within error of each other in Kd: 0.034 ± 0.0078 µM for the first, 0.0223 ± 0.0098 µM for the second.

`CCCCn1cnc2ccc(-c3cccc([C@H]4O[C@H](CO)[C@@H](O)[C@H](O)[C@@H]4O)c3)cc21` [Compound 149, (2R,3S,4R,5S,6R)-2-[3-(3-Butylbenzimidazol-5-yl)phenyl]-6-(hydroxymethyl)tetrahydropyran-3,4,5-triol] gave a Kd of 0.0198 ± 0.0112 µM.

Each molecule was assayed against T1, FimH-CRD (assay: Competitive binding assay by fluorescence polarization, assay 1 (compounds prepared by manual serial dilution)).
How it was run: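 Compounds at 0.4 nM–75 μM final (12 points, 3-fold steps, duplicate) compete with a 5 nM Alexa 647 mannoside probe for 60 nM FimH-CRD; 5 h room-temperature incubation in pH 7.0 Tris buffer with 2.5% DMSO, FP read-out, Kd from fitted curves. Assay 1 uses manual dilution, assay 2 robot-made frozen/thawed plates.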

`OC[C@H]1O[C@H](c2ccc(Cl)c(O)c2)[C@@H](O)[C@@H](O)[C@@H]1O` [Compound 67, (2R,3S,4R,5S,6R)-2-(4-chloro-3-hydroxyphenyl)-6-(hydroxymethyl)tetrahydro-2H-pyran-3,4,5-triol] gave an IC50 of 0.106 µM.

`OC[C@H]1O[C@H](c2ccc(Cl)c(O)c2)[C@@H](O)[C@@H](O)[C@@H]1O` [Compound 67, (2R,3S,4R,5S,6R)-2-(4-chloro-3-hydroxyphenyl)-6-(hydroxymethyl)tetrahydro-2H-pyran-3,4,5-triol] was tested, and the Kd was 0.021 ± 0.0043 µM.
